Converted amounts (≈) assume the structure as drawn.

Experimental findings from patent publication US10221163B2 (priority 2015, dated 2019) are described below.

The test system of data set [1] is MB 9799: MB 5890 Trans IMP1 plasmid (OprD+, efflux−). In words: microbe, parasite or virus in culture. The format is cell-based, Pseudomonas aeruginosa.
Data set [2] concerns MB 5919 Trans pFlp-Vim2 plasmid (OprD+, efflux+). As to the kind of experiment: microbe, parasite or virus in culture. It is filed as cell-based, Pseudomonas aeruginosa.
The subject of data set [3] is MB 9861: MB 5919 Trans pFlp-Vim1 plasmid (OprD+, efflux+). In words: microbe, parasite or virus in culture. It is filed as cell-based, Pseudomonas aeruginosa.
Data set [4] relates to MB 9798: MB 5919 Trans IMP1 plasmid (OprD+, efflux+). As to the kind of experiment: microbe, parasite or virus in culture. It is filed as cell-based, Pseudomonas aeruginosa.
In data set [5] the test system is MB 5890 Trans pFlp-Vim2 plasmid (OprD+, efflux−). In words: microbe, parasite or virus in culture. The format is cell-based, Pseudomonas aeruginosa.
Data set [6] relates to Pseudomonas aeruginosa MB 5919 (OprD+, efflux+). In words: microbe, parasite or virus in culture. The format is cell-based.
The test system of data set [7] is MB9862: MB 5890 Trans pFlp-Vim1 (OprD+, efflux−). As to the kind of experiment: microbe, parasite or virus in culture. It is filed as cell-based, Pseudomonas aeruginosa.
Data set [8] concerns Pseudomonas aeruginosa MB 5890 (OprD+, efflux−). In words: microbe, parasite or virus in culture. The format is cell-based.
In data set [9] the test system is Pseudomonas aeruginosa MB9798 vs MB9799. As to conditions: ratio MITC95 PA_9798/MITC95 PA_9799. In a few lines:
(§1)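 P. aeruginosa PAO1-derived IMP-1 strains, efflux+ MB9798 and efflux− MB9799, tested by standard microbroth MIC with imipenem and/or ceftazidime fixed, usually at CLSI breakpoint, plus fixed class A/C β-lactamase inhibitor against AmpC. Inhibitor titrated; concentration restoring susceptibility recorded; MB9798/MB9799 fold difference indicates efflux.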

The test system of data set [10] is Pseudomonas aeruginosa efflux+ (MB9798), IMP-1. The format is cell-based. As to conditions: concentration restoring susceptibility to imipenem at 2 μg/mL in the presence of a class A, C, D serine β-lactamase inhibitor closely related to relebactam. In a few lines: as §1
Data set [11] relates to Serratia marcescens expressing IMP-1 (CL5741). The format is cell-based. As to conditions: IMP-1 strain CL5741, with imipenem 1 μg/ml, 95% inhibition of growth. An outline of the steps:
(§2)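 Growth by absorbance after 22–24 h at 35°C defined the read-out, with imipenem fixed at 1 μg/ml alongside compound. Inocula came from overnight blood-agar colonies at 35°C, resuspended in saline and diluted 1:100 in 1.1×CAMHB.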

Data set [12] relates to Escherichia coli expressing NDM-1 (CLB30005, CLB30016). It is filed as cell-based. To be noted: NDM-1 strain, with imipenem 1 μg/ml, 95% inhibition of growth. An outline of the steps: as §2
Data set [13] has as its system Klebsiella pneumoniae expressing VIM-1 (IHMA599644). The format is cell-based. To be noted: VIM-1 strain IHMA599644, with imipenem 1 μg/ml, 95% inhibition of growth. In a few lines: as §2
Data set [14] has as its target NDM-1 (Klebsiella pneumoniae, UniProt C7C422). As to the kind of experiment: biochemical. The format is biochemical. To be noted: fluorescence assay, CCF2-FA substrate, 1 pM enzyme, 2 hours at 25° C.; read-out: NDM-1 IC50. An outline of the steps:
(§3)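 Enzyme activity was measured by fluorescence using CCF2-FA, a cephalosporin-linked 7-hydroxycoumarin/fluorescein substrate, with inhibitor, metallo-β-lactamase and substrate incubated together for 2 hours at 25° C. IC50 came from a 4-parameter fit of inhibition versus log inhibitor concentration.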

The target in data set [15] is IMP-1 (Serratia marcescens, UniProt P52699). As to the kind of experiment: biochemical. It is filed as biochemical. To be noted: fluorescence assay, CCF2-FA substrate, 2 pM enzyme, 2 hours at 25° C.; read-out: IMP-1 IC50. In a few lines:
as §3

Data set [16] concerns Pseudomonas aeruginosa efflux− (MB9799), IMP-1. The format is cell-based. As to conditions: concentration restoring susceptibility to imipenem at 2 μg/mL in the presence of a class A, C, D serine β-lactamase inhibitor closely related to relebactam. In a few lines:
as §1

Data set [17] has as its target VIM-1 (Pseudomonas aeruginosa (strain ATCC 15692 / DSM 22644 / CIP 104116 / JCM 14847 / LMG 12228 / 1C / PRS 101 / PAO1), UniProt A0A0F7KYQ8). In words: biochemical. To be noted: fluorescence assay, CCF2-FA substrate, 30 pM enzyme, 2 hours at 25° C.; read-out: VIM-1 IC50. An outline of the steps: as §3
[18] abbreviates: MB 9799 = MB 5890 Trans IMP1 plasmid, OprD+, efflux−.
Setting [19] is: MB 5919 Trans pFlp-Vim2 plasmid, OprD+, efflux+.
Where [20] appears, read: MB 9861 = MB 5919 Trans pFlp-Vim1 plasmid, OprD+, efflux+.
Setting [21] is: MB 9798 = MB 5919 Trans IMP1 plasmid, OprD+, efflux+.
Setting [22] is: MB 5890 Trans pFlp-Vim2 plasmid, OprD+, efflux−.
The mark [23] stands for this setting: MB9862 = MB 5890 Trans pFlp-Vim1, OprD+, efflux−.

Chain of NDM-1 (C7C422 whole entry, looked up, species assumed): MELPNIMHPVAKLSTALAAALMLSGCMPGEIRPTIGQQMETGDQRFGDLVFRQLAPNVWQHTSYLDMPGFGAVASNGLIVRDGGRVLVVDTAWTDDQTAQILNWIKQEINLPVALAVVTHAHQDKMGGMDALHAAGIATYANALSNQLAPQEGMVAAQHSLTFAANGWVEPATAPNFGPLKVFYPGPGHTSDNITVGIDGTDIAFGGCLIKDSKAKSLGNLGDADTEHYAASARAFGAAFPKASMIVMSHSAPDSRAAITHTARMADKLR
Chain of IMP-1 (P52699 whole entry, looked up, species assumed): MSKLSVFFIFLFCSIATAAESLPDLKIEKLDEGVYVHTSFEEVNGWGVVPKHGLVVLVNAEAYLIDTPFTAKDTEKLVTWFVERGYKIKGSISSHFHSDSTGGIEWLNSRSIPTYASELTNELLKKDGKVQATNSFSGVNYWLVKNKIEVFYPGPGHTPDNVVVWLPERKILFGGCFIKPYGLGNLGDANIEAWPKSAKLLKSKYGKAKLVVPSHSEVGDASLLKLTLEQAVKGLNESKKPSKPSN

For the compound `C[C@@H](O)[C@H]1C(=O)N2C(C(=O)O)=C(SCCN=CN)C[C@H]12` [Imipenem, imipenem], the MIC in [1] (setting [18]) was 32 µg/mL (≈ 107 µM); in [2] (setting [19]), greater than 64 µg/mL; in data set [3] (setting [20]), greater than 64 µg/mL; in [4] (setting [21]), 64 µg/mL (≈ 214 µM); in data set [5] (setting [22]), 32 µg/mL (≈ 107 µM); in data set [6] (MB 5919, OprD+, efflux+), 4 µg/mL (≈ 13.4 µM). Besides, the MIC in data set [7] (setting [23]) turned out to be 64 µg/mL (≈ 214 µM); in data set [8] (MB 5890, OprD+, efflux−), 2 µg/mL (≈ 6.68 µM).
`CCN1CCN(C(=O)N[C@@H](C(=O)N[C@@H]2C(=O)N3[C@@H]2SC(C)(C)[C@@H]3C(=O)O)c2ccccc2)C(=O)C1=O` [Piperalln, piperacillin]: the MIC in data set [1] (setting [18]) is 4 µg/mL (≈ 7.73 µM); in data set [2] (setting [19]), greater than 256 µg/mL; in data set [3] (setting [20]) it was greater than 256 µg/mL; in data set [4] (setting [21]), 4 µg/mL (≈ 7.73 µM); in data set [5] (setting [22]) it was 128 µg/mL (≈ 247 µM); in data set [6] (MB 5919, OprD+, efflux+), 2 µg/mL (≈ 3.86 µM). Further, the MIC was found to be 128 µg/mL (≈ 247 µM) in data set [7] (setting [23]) and 1 µg/mL (≈ 1.93 µM) in data set [8] (MB 5890, OprD+, efflux−).
`CC(C)(O/N=C(\C(=O)N[C@@H]1C(=O)N2C(C(=O)[O-])=C(C[n+]3ccccc3)CS[C@H]12)c1csc(N)n1)C(=O)O` [CAZ, ceftazidime]: the MIC in data set [1] (setting [18]) was 256 µg/mL (≈ 468 µM); in data set [2] (setting [19]), 128 µg/mL (≈ 234 µM); in data set [3] (setting [20]), greater than 256 µg/mL; in data set [4] (setting [21]), 256 µg/mL (≈ 468 µM); in data set [5] (setting [22]) it was 64 µg/mL (≈ 117 µM); in data set [6] (MB 5919, OprD+, efflux+) it was 1 µg/mL (≈ 1.83 µM). The MIC was greater than 256 µg/mL in [7] (setting [23]) and 0.5 µg/mL (≈ 0.915 µM) in [8] (MB 5890, OprD+, efflux−).
Consider `O=C(N[C@H](CO)[C@H](O)c1ccc([N+](=O)[O-])cc1)C(Cl)Cl` [Chloroamphenicol, chloramphenicol], for which the MIC was 1 µg/mL (≈ 3.09 µM) in data set [1] (Pseudomonas aeruginosa); greater than 64 µg/mL in data set [2] (Pseudomonas aeruginosa); greater than 64 µg/mL in data set [3] (Pseudomonas aeruginosa); greater than 64 µg/mL in data set [4] (Pseudomonas aeruginosa); 1 µg/mL (≈ 3.09 µM) in [5] (Pseudomonas aeruginosa); greater than 64 µg/mL in [6] (Pseudomonas aeruginosa). In addition, the MIC was determined as 2 µg/mL (≈ 6.19 µM) in data set [7] (Pseudomonas aeruginosa) and 1 µg/mL (≈ 3.09 µM) in data set [8] (Pseudomonas aeruginosa).
As for `CC[C@H]1OC(=O)[C@H](C)[C@@H](O[C@H]2C[C@@](C)(OC)[C@@H](O)[C@H](C)O2)[C@H](C)[C@@H](O[C@@H]2O[C@H](C)C[C@H](N(C)C)[C@H]2O)[C@](C)(O)C[C@@H](C)CN(C)[C@H](C)[C@@H](O)[C@]1(C)O` [Azithromycin], the MIC came out at 2 µg/mL (≈ 2.67 µM) in [1] (Pseudomonas aeruginosa); 32 µg/mL (≈ 42.7 µM) in [2] (Pseudomonas aeruginosa); 32 µg/mL (≈ 42.7 µM) in data set [3] (Pseudomonas aeruginosa); 16 µg/mL (≈ 21.4 µM) in [4] (Pseudomonas aeruginosa); 1 µg/mL (≈ 1.34 µM) in [5] (Pseudomonas aeruginosa); 16 µg/mL (≈ 21.4 µM) in data set [6] (Pseudomonas aeruginosa). The MIC in [7] (Pseudomonas aeruginosa) and in data set [8] (Pseudomonas aeruginosa) was 1 µg/mL (≈ 1.34 µM) in each case.
Turning to `C[C@@H](O)[C@H]1C(=O)N2C(C(=O)O)=C(S[C@@H]3CN[C@H](C(=O)N(C)C)C3)[C@H](C)[C@H]12` [Meropenem, meropenem], the MIC in data set [1] (setting [18]) is 64 µg/mL (≈ 167 µM); in data set [2] (setting [19]), greater than 64 µg/mL; in data set [3] (setting [20]), greater than 64 µg/mL; in data set [4] (setting [21]), greater than 64 µg/mL; in data set [5] (setting [22]) it was 32 µg/mL (≈ 83.4 µM); in [6] (MB 5919, OprD+, efflux+), 2 µg/mL (≈ 5.22 µM). The MIC in data set [7] (setting [23]) is 64 µg/mL (≈ 167 µM); in data set [8] (MB 5890, OprD+, efflux−), 0.5 µg/mL (≈ 1.3 µM).
Regarding `Nc1nc2c(-c3ccc(S(=O)(=O)NC4CNC4)c(S(N)(=O)=O)c3-c3nn[nH]n3)cccc2[nH]1` [Example 252, 4-(2-amino-1H-benzo[d]imidazol-4-yl)-N1-(azetidin-3-yl)-3-(2H-tetrazol-5-yl)benzene-1,2-disulfonamide], the Efflux ratio in [9] worked out at 0.68. Also, the “P. aeruginosa expressing IMP-1, efflux + (MB9798) MITC95” value in data set [10] was 0.418 µM. In addition, the “Serratia marcescens MITC95” value in data set [11] was 0.7383 µM. In addition, the “Escherichia coli MITC95” value in data set [12] turned out to be 0.4271 µM. In data set [13], the “Klebsiella pneumoniae MITC95” value came to 0.8359 µM. The IC50 in data set [14] amounted to 0.0426 nM; in data set [15], 0.654 nM; in data set [17] it was 0.149 nM. Besides, the “P. aeruginosa expressing IMP-1, efflux − (MB9799) MITC95” value in data set [16] came to 0.6133 µM.
